Source: publication PMC10756276, “Highly specific σ2R/TMEM97 ligand FEM-1689 alleviates neuropathic pain and inhibits the integrated stress response” (Proceedings of the National Academy of Sciences of the …, 2023)
“Also recorded” adds a separate entry of the source. Where two headings read alike, the source gives them in different places.

Experiments:
[1] = molecular target: T1, M4 (Homo sapiens, UniProt P08173); assay: PDSP competitive binding assay; details: 10 µM test article; read-out: Ki: primary assay inhibition of radioligand binding, M4
T1 construct: purchased NIMH Psychoactive Drug Screening Program (PDSP), University of North Carolina at Chapel Hill

[2] = molecular target: D1 (Homo sapiens, UniProt P21728); assay: PDSP competitive binding assay; details: 10 µM test article; read-out: Ki: primary assay inhibition of radioligand binding, D1
[3] = molecular target: NET (Homo sapiens, UniProt P23975); assay: PDSP competitive binding assay
[4] = system: p-ACC in mouse DRG neurons; assay: p-ACC immunocytochemistry in cultured DRG neurons; assay type: cell-based; details: 16 h; FEM-1689 10, 100, 1,000 nM; A769662 100 µM; wild-type and TMEM97KO neurons
Description: (§1) The ICC protocol was based on a previously published protocol ([76]). […] Cells were blocked with 10% normal goat serum (NGS) in PBS-triton X (0.1%). […] Antibodies were incubated at 4 °C overnight. […] It was washed with PBS twice. […] Images were analyzed using Olympus CellSens. […] Number of cells analyzed are detailed in SI Appendix, Tables S3 and S4. […]
(§2) T his BSA gradient containing the cells was centrifuged at 900g for 5 min at room temperatur e.
(§3) The pellet containing the cells was resuspended in Br ainPhys media (STEMCell #05790) containing 2% […]
(§4) 1% Gluta Max (Gibco # 350 5 0061). Hu man DRG ne uron s were plated a nd grown o n glass coverslips coate d with po ly-D-lysine (Sigma #P7405). C ultured D RG neurons were plated for 24 hours before being treated.
(§5) Methylglyoxal (Sigma- Aldrich #M0252) and F EM- 1689 were serially diluted in media.
(§6) Mouse samples - DRG cultures […]
(§7) anesthesia and decapitated. […]
(§8) section above with minor differences.
(§9) Mouse DRG neurons were grown in
(§10) SAS-0132 and DKR-1677 were […]
(§11) dissolved in 100% DMSO to a final concentr ation of 200mM and stored at - 20 °C. and DKR-1677 were serially diluted in media. Untreated media was completely replaced with media containing each compound. […]
(§12) Slides were […]
incubated with 1:2 diluted hydrogen peroxide in distilled water for 10 min at r oom temper ature and washed twice in distilled water. […]

[5] = molecular target: T2, Alpha1d (Homo sapiens, UniProt P25100); assay: PDSP competitive binding assay; details: 10 µM test article; read-out: Ki: primary assay inhibition of radioligand binding, Alpha1d
T2 construct: purchased NIMH Psychoactive Drug Screening Program (PDSP), University of North Carolina at Chapel Hill

[6] = molecular target: T3, H1 (Homo sapiens, UniProt P35367); assay: PDSP competitive binding assay; details: 10 µM test article; read-out: Ki: primary assay inhibition of radioligand binding, H1
T3 construct: purchased NIMH Psychoactive Drug Screening Program (PDSP), University of North Carolina at Chapel Hill

[7] = molecular target: T4, Beta 3 (Homo sapiens, UniProt P13945); assay: PDSP competitive binding assay; details: 10 µM test article; read-out: Ki: primary assay inhibition of radioligand binding, Beta 3
T4 construct: purchased NIMH Psychoactive Drug Screening Program (PDSP), University of North Carolina at Chapel Hill

[8] = molecular target: T5, Beta1 (Homo sapiens, UniProt P08588); assay: PDSP competitive binding assay; details: 10 µM test article; read-out: Ki: primary assay inhibition of radioligand binding, Beta1
T5 construct: purchased NIMH Psychoactive Drug Screening Program (PDSP), University of North Carolina at Chapel Hill

[9] = molecular target: 5HT6 (Homo sapiens, UniProt P50406); assay: PDSP competitive binding assay; details: single determination
[10] = molecular target: 5HT2A (Homo sapiens, UniProt P28223); assay: PDSP competitive binding assay; details: 10 µM test article; read-out: Ki: primary assay inhibition of radioligand binding, 5HT2A
[11] = molecular target: Beta2 (Homo sapiens, UniProt P07550); assay: PDSP competitive binding assay; details: 10 µM test article; read-out: Ki: primary assay inhibition of radioligand binding, Beta2
[12] = molecular target: KOR (Homo sapiens, UniProt P41145); assay: PDSP competitive binding assay
[13] = molecular target: 5HT2B (Homo sapiens, UniProt P41595); assay: PDSP competitive binding assay; details: 10 µM test article; read-out: Ki: primary assay inhibition of radioligand binding, 5HT2B
[14] = molecular target: T6, H3 (Homo sapiens, UniProt Q9Y5N1); assay: PDSP competitive binding assay; details: 10 µM test article; read-out: Ki: primary assay inhibition of radioligand binding, H3
T6 construct: purchased NIMH Psychoactive Drug Screening Program (PDSP), University of North Carolina at Chapel Hill

[15] = molecular target: T7, Alpha2c (Homo sapiens, UniProt P18825); assay: PDSP competitive binding assay; details: 10 µM test article; read-out: Ki: primary assay inhibition of radioligand binding, Alpha2c
T7 construct: purchased NIMH Psychoactive Drug Screening Program (PDSP), University of North Carolina at Chapel Hill

[16] = molecular target: σ2R/TMEM97 (Homo sapiens, UniProt Q5BJF2); assay: Competition binding with [3H]-ditolylguanidine in presence of (+)-pentazocine (NIMH PDSP)
[17] = molecular target: M2 (Homo sapiens, UniProt P08172); assay: PDSP competitive binding assay; details: 10 µM test article; read-out: Ki: primary assay inhibition of radioligand binding, M2
[18] = molecular target: T8, 5HT1A (Homo sapiens, UniProt P08908); assay: PDSP competitive binding assay; details: 10 µM test article; read-out: Ki: primary assay inhibition of radioligand binding, 5HT1A
T8 construct: purchased NIMH Psychoactive Drug Screening Program (PDSP), University of North Carolina at Chapel Hill

[19] = system: p-eIF2α in mouse DRG neurons; assay: p-eIF2α immunocytochemistry in cultured DRG neurons; assay type: cell-based; details: for p-eIF2α levels: ISRIB 200 nM
Description: as §1, §2, §3, §4, §5, §6, §7, §8, §9, §10, §11, §12
incubated with 1:2 diluted hydrogen peroxide in distilled water for 10 min at r oom temper ature and washed twice in distilled water. The protease IV was applied to each section and incubated for 5 min at room temperature. Slides were w ashed twice in 1X PBS and RNA scope was performed immediately. A mixture of probes - Tmem97, Scn10a, and Fabp7 – was hybridized for 2 hours at 40 °C in a humidity control tray

[20] = molecular target: T9, M3 (Homo sapiens, UniProt P20309); assay: PDSP competitive binding assay; details: 10 µM test article; read-out: Ki: primary assay inhibition of radioligand binding, M3
T9 construct: purchased NIMH Psychoactive Drug Screening Program (PDSP), University of North Carolina at Chapel Hill

[21] = molecular target: 5HT3 (Homo sapiens, UniProt P46098); assay: PDSP competitive binding assay; details: 10 µM test article; read-out: Ki: primary assay inhibition of radioligand binding, 5HT3
[22] = molecular target: T10, M5 (Homo sapiens, UniProt P08912); assay: PDSP competitive binding assay; details: 10 µM test article; read-out: Ki: primary assay inhibition of radioligand binding, M5
T10 construct: purchased NIMH Psychoactive Drug Screening Program (PDSP), University of North Carolina at Chapel Hill

Structure (SMILES): OCCCN1CC[C@@H]2C[C@H]1c1cc(-c3ccc(C(F)(F)F)cc3)ccc12 [FEM-1689]
- inhibition at 10 µM [1]: < 50%
- inhibition at 10 µM [2]: < 50%
- Ki ([3]; Ki, NET, Run 1): 668 nM
- Ki ([3]; Ki, NET, Run 2): 221 nM
- Ki ([3]; Ki, NET, Run 3): 209 nM
- Ki ([3]; Ki, NET, Run 4): 519 nM
- selectivity for σ2R/TMEM97 vs NET ([3]; ratio of Ki): 24 fold
- Ki ([3]; read-out: NET Ki, average of four Ki determinations): 405 ± 227 nM
- p-ACC levels [4]: remained unchanged; also recorded: no change in p-ACC levels
- inhibition at 10 µM [5]: < 50%
- inhibition at 10 µM [6]: < 50%
- inhibition at 10 µM [7]: < 50%
- inhibition at 10 µM [8]: < 50%
- Ki [9]: > 10000 nM
- inhibition at 10 µM [10]: < 50%
- inhibition at 10 µM [11]: < 50%
- Ki ([12]; Run 1, read-out: Ki, KOR): 4700 nM
- Ki ([12]; Run 2, read-out: Ki, KOR): 9490 nM
- Ki ([12]; read-out: KOR Ki): 7090 ± 2400 nM
- inhibition at 10 µM [13]: < 50%
- inhibition at 10 µM [14]: < 50%
- inhibition at 10 µM [15]: < 50%
- Ki [16]: 11.2 nM
- Ki ([16]; read-out: σ2R/TMEM97 Ki, averages ± SD): 17 ± 8 nM
- inhibition at 10 µM [17]: < 50%
- inhibition at 10 µM [18]: < 50%
- treatment time of maximal effect on p-eIF2α ([19]; 100 nM, wild-type mouse DRG neurons): 16 h
- half-life (t1/2) at reducing p-eIF2α levels in vitro ([19]; 100 nM, wild-type mouse DRG neurons, 0.5-16 h): 5.0 h
- IC50 ([19]; DRG neuron, wild-type mouse DRG neurons, 16 h): 30 nM
- p-eIF2α levels ([19]; TMEM97KO mouse DRG neurons, 16 h): did not respond
- p-eIF2α levels ([19]; wild-type mouse DRG neurons, 16 h): reduced p-eIF2α levels
- concentration of maximal ISR inhibition (p-eIF2α) ([19]; wild-type mouse DRG neurons, 16 h, comparable to ISRIB 200 nM): 100 nM
- inhibition at 10 µM [20]: < 50%
- inhibition at 10 µM [21]: < 50%
- inhibition at 10 µM [22]: < 50%
